Assay results reported in publication PMC10175918 (Communications Biology, 2023).
Several values for one entry are separate records, joined by “and”; a condition that tells them apart may be missing. Identical values can stand only once. Like-named read-outs stand apart in the source and are kept apart here.

Legend:
[1] = target: T1, 348 GPCRs (Homo sapiens, UniProt Q9BXC0); assay: TGFα-shedding assay-based GPCR screening with chimeric Gα subunit proteins; format: cell-based; settings: 10µM, Favipiravir 100μM
T1 construct: expressed in transfected cells; host or cells: HEK293A
T1 sequence (Q9BXC0 whole entry): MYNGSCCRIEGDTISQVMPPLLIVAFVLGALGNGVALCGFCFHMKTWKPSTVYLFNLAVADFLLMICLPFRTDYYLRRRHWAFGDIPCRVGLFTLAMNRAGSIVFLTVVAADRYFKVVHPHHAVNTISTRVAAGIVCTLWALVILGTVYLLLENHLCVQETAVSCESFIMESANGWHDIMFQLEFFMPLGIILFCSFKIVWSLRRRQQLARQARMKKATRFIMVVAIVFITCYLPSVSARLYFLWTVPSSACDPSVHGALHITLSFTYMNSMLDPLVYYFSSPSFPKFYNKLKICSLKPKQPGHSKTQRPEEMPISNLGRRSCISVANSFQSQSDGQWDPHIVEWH

[2] = target: T2, 348 GPCRs (Homo sapiens, UniProt Q9UKP6); assay: as above; format: cell-based; settings: 10µM, Favipiravir 100μM
T2 construct: expressed in transfected cells; host or cells: HEK293A
T2 sequence (Q9UKP6 1-389): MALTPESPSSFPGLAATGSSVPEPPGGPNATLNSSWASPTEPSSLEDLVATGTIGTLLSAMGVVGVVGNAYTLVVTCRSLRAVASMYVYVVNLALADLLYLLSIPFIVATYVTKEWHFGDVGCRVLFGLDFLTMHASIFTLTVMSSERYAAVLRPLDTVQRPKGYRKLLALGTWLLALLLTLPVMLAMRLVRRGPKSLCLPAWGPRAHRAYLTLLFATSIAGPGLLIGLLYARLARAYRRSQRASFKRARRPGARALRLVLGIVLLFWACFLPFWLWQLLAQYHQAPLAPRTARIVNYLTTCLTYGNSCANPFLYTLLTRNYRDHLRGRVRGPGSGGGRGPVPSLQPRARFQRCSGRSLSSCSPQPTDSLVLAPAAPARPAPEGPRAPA

[3] = target: T3, 348 GPCRs (Homo sapiens, UniProt Q9NYV7); assay: as above; format: cell-based; settings: 10µM, Favipiravir 100μM
T3 construct: expressed in transfected cells; host or cells: HEK293A
T3 sequence (Q9NYV7 1-291): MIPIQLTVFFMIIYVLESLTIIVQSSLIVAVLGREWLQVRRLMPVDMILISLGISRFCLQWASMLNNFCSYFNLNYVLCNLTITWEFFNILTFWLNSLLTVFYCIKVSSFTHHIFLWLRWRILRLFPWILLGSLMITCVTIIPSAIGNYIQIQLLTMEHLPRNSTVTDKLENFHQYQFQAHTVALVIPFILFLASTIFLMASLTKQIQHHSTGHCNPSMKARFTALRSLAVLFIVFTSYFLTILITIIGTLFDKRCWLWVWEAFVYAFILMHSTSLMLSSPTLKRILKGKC

[4] = target: T4, 348 GPCRs (Homo sapiens, UniProt Q8IWK6); assay: as above; format: cell-based; settings: 10µM, Favipiravir 100μM
T4 construct: expressed in transfected cells; host or cells: HEK293A
T4 sequence (Q8IWK6 34-1321): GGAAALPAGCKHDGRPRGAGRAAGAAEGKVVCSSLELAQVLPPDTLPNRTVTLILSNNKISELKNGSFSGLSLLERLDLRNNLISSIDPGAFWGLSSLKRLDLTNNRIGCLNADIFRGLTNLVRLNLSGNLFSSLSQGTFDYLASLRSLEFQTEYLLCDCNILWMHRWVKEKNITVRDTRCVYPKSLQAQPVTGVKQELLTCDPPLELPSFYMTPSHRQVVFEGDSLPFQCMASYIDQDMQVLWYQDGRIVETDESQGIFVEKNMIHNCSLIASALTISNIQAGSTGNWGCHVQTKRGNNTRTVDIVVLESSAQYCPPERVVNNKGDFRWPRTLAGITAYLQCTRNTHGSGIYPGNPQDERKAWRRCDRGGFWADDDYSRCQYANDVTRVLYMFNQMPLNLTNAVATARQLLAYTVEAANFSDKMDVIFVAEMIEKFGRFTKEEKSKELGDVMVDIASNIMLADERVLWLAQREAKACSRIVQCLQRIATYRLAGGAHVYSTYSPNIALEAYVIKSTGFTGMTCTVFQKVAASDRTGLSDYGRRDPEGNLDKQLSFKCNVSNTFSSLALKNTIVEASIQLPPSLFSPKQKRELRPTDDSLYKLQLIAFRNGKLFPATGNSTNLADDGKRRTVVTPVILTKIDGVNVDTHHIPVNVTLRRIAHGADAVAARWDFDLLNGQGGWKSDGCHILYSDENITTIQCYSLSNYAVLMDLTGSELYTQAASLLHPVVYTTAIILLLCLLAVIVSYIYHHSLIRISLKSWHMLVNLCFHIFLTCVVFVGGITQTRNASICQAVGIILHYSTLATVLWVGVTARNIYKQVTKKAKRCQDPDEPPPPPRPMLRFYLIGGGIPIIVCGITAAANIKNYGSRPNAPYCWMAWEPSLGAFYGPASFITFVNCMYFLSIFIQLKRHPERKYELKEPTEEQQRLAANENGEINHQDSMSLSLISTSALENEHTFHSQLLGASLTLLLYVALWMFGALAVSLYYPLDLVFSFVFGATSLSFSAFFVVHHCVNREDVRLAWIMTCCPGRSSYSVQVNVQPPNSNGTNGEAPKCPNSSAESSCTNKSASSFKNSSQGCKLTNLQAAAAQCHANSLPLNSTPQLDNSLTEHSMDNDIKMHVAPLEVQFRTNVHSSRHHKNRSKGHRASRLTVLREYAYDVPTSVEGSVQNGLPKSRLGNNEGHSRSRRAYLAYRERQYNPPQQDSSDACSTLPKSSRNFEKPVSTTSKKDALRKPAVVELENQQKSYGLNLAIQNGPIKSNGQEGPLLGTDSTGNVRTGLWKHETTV

[5] = target: T5, urotensin-II receptor (UTS2R) (Homo sapiens, UniProt Q9UKP6); assay: TGFα-shedding assay, concentration-response on UTS2R (endogenous G protein), with or without urantide; format: cell-based
T5 construct: expressed in transfected cells; host or cells: HEK293A
T5 sequence (Q9UKP6 1-389): T2 sequence (Q9UKP6 1-389)

[6] = tested on: UTS2R D130G; assay: TGFα-shedding assay on UTS2R SNV mutant D130G; format: cell-based, human; settings: cutoff value set to −1, single replicates
[7] = tested on: UTS2R V159M; assay: TGFα-shedding assay on UTS2R SNV mutant V159M; format: cell-based, human; settings: cutoff value set to −1, single replicates
[8] = tested on: UTS2R N297A; assay: TGFα-shedding assay on UTS2R mutant N297A; format: cell-based, human; settings: cutoff value set to −1, single replicates
[9] = parameters: method as in earlier work; settings: intravenous injection, healthy adults; cited from earlier work
[10] = tested on: UTS2R M134T; assay: TGFα-shedding assay on UTS2R mutant M134T; format: cell-based, human; settings: cutoff value set to −1, single replicates
[11] = GPR81 (hydroxycarboxylic acid receptor 1), read-out: % GPCR activation compared to TPA
[12] = UTS2R (urotensin 2 receptor), read-out: % GPCR activation compared to TPA
[13] = TAS2R16 (taste receptor, type 2, member 16), read-out: % GPCR activation compared to TPA
[14] = GPR125 (Adhesion G Protein-Coupled Receptor A2 (ADGRA3)), read-out: % GPCR activation compared to TPA
[15] = read-out: % GPCR activation compared to TPA, GPR81 (hydroxycarboxylic acid receptor 1)
[16] = read-out: % GPCR activation compared to TPA, UTS2R (urotensin 2 receptor)
[17] = read-out: % GPCR activation compared to TPA, TAS2R16 (taste receptor, type 2, member 16)
[18] = read-out: % GPCR activation compared to TPA, GPR125 (Adhesion G Protein-Coupled Receptor A2 (ADGRA3))

| activation at 100 µM [1, 11] [%] | activation at 10 µM [2, 12] [%] | activation at 100 µM [3, 13] [%] | activation at 10 µM [4, 14] [%] | SMILES | activation at 100 µM [1, 15] [%] | activation at 10 µM [2, 16] [%] | activation at 100 µM [3, 17] [%] | activation at 10 µM [4, 18] [%] | also measured |
| --- | --- | --- | --- | --- | --- | --- | --- | --- | --- |
| 1.05 | -11.4 | -2.06 | -0.689 | N#C[C@@]1(c2ccc3c(N)ncnn23)O[C@H](CO)[C@@H](O)[C@H]1O [GS441524] |  |  |  |  |  |
| 0.102 | -4.11 | 0.411 | -1.96 | NC(=O)c1nc(F)cnc1O [favipiravir, 6-fluoro-3-hydroxy-2-pyrazinecarboxamide] |  |  |  |  |  |
| 0.933 | -8.44 | -0.65 | -0.998 | CC(C)C(=O)OC[C@H]1O[C@@H](n2ccc(NO)nc2=O)[C@H](O)[C@@H]1O [molnupiravir] |  |  |  |  |  |
|  |  |  |  | CCC(CC)COC(=O)[C@H](C)N[P@](=O)(OC[C@H]1O[C@@](C#N)(c2ccc3c(N)ncnn23)[C@H](O)[C@@H]1O)Oc1ccccc1 [remdesivir] | 2.29 | 46.9 | 0.556 | -0.226 | Emax [5]: 47 ± 1.4%; EC50 ([5]; WT EC50 (Remdesivir), wild-type UTS2R control run alongside the mutant): 17.4 µM and 15.9 µM and 10.7 µM and 14 µM and 10.2 µM and 10.8 µM and 12.4 µM (2×) and 18 µM and 11.6 µM and 18.5 µM; EC50 ([5]; pEC50 (TGFα-shedding response for UTS2R), WT UTS2R, without chimeric Gα protein, HEK293A cells): 12.9 µM; activation at 10 µM ([5]; read-out: UTS2R activation (%AP-TGFα release), compound concentration Log10 (M) -5, without urantide): 15%; activation at 3.3 µM ([5]; read-out: UTS2R activation (%AP-TGFα release), compound concentration Log10 (M) -5.48149, without urantide): 7.9%; ⊿pEC50 compared to WT UTS2R [6]: > 0.3 and 0.2569 and 0.39 and 0.2404 and 0.3246; ⊿pEC50 compared to WT UTS2R [7]: > 0.3 and 0.3136 and 0.3109 and 0.3308 and 0.4558; ⊿pEC50 compared to WT UTS2R [8]: -1 and -0.7407; maximum plasma concentration [9]: 9.03 µM; ⊿pEC50 compared to WT UTS2R [10]: -1 |
|  |  |  |  | CC(C)OC(=O)[C@H](C)N[P@](=O)(OC[C@H]1O[C@@H](n2ccc(=O)[nH]c2=O)[C@](C)(F)[C@@H]1O)Oc1ccccc1 [sofosbuvir] | -7.92 | -2.85 | -1 | 0.926 | UTS2R activation ([5]; TGFα-shedding, screening 10 μM and response curves (Fig. 1a, Supplementary Fig. 1a)): did not activate UTS2R |
